Activity calls are given as the source filed them.
Assays:
Assay type in all cases: functional, cell-based
MDA-MB-231 [1] = assay: Induction of apoptosis in human MDA-MB-231 cells at IC50 concentration incubated for 48 hrs by Annexin V-FITC/PI staining based flow cytometry
LoVo [2] = assay: Induction of cell cycle arrest in human LoVo cells assessed as decrease in accumulation of cells at G2/M phase incubated for 48 hrs by flow cytometry
LoVo [3] = assay: Induction of apoptosis in human LoVo cells at IC50 concentration incubated for 48 hrs by Annexin V-FITC/PI staining based flow cytometry
LoVo [4] = assay: Induction of cell cycle arrest in human LoVo cells assessed as accumulation of cells at S phase incubated for 48 hrs by flow cytometry
MDA-MB-231 [5] = assay: Induction of cell cycle arrest in human MDA-MB-231 cells assessed as decrease in accumulation of cells at G2/M phase incubated for 48 hrs by flow cytometry
LoVo [6] = assay: Induction of necrosis in human LoVo cells at IC50 concentration incubated for 48 hrs by Annexin V-FITC/PI staining based flow cytometry
MDA-MB-231 [7] = assay: Induction of cell cycle arrest in human MDA-MB-231 cells assessed as accumulation of cells at S phase incubated for 48 hrs by flow cytometry
MDA-MB-231 [8] = assay: Induction of necrosis in human MDA-MB-231 cells at IC50 concentration incubated for 48 hrs by Annexin V-FITC/PI staining based flow cytometry
PC-3 [9] = assay: Induction of cell cycle arrest in human PC-3 cells assessed as accumulation of cells at S phase incubated for 48 hrs by flow cytometry
DU-145 [10] = assay: Induction of necrosis in human DU-145 cells at IC50 concentration incubated for 48 hrs by Annexin V-FITC/PI staining based flow cytometry
DU-145 [11] = assay: Induction of cell cycle arrest in human DU-145 cells assessed as accumulation of cells at G2/M phase incubated for 48 hrs by flow cytometry
PC-3 [12] = assay: Induction of apoptosis in human PC-3 cells at IC50 concentration incubated for 48 hrs by Annexin V-FITC/PI staining based flow cytometry
DU-145 [13] = assay: Induction of cell cycle arrest in human DU-145 cells assessed as accumulation of cells at S phase incubated for 48 hrs by flow cytometry
PC-3 [14] = assay: Induction of necrosis in human PC-3 cells at IC50 concentration incubated for 48 hrs by Annexin V-FITC/PI staining based flow cytometry
DU-145 [15] = assay: Induction of apoptosis in human DU-145 cells at IC50 concentration incubated for 48 hrs by Annexin V-FITC/PI staining based flow cytometry
Hep 3B2 [16] = assay: Induction of cell cycle arrest in human Hep3B cells assessed as decrease in accumulation of cells at S phase incubated for 48 hrs by flow cytometry
Hep 3B2 [17] = assay: Induction of cell cycle arrest in human Hep3B cells assessed as increase in accumulation of cells at G2/M phase incubated for 48 hrs by flow cytometry
Hep 3B2 [18] = assay: Induction of cell cycle arrest in human Hep3B cells assessed as decrease in accumulation of cells at G0/G1 phase incubated for 48 hrs by flow cytometry
Hep 3B2 [19] = assay: Induction of necrosis in human Hep3B cells at IC50 concentration incubated for 48 hrs by Annexin V-FITC/PI staining based flow cytometry
Hep 3B2 [20] = assay: Induction of early apoptosis in human Hep3B cells at IC50 concentration incubated for 48 hrs by Annexin V-FITC/PI staining based flow cytometry
MDA-MB-231 [21] = assay: Induction of cell cycle arrest in human MDA-MB-231 cells assessed as accumulation of cells at G0/G1 phase incubated for 48 hrs by flow cytometry
HepG2 [22] = assay: Induction of necrosis in human HepG2 cells at IC50 concentration incubated for 48 hrs by Annexin V-FITC/PI staining based flow cytometry
HepG2 [23] = assay: Induction of late apoptosis in human HepG2 cells at IC50 concentration incubated for 48 hrs by Annexin V-FITC/PI staining based flow cytometry
MCF7 [24] = assay: Induction of apoptosis in human MCF7 cells at IC50 concentration incubated for 48 hrs by Annexin V-FITC/PI staining based flow cytometry
HCT-116 [25] = assay: Induction of necrosis in human HCT-116 cells at IC50 concentration incubated for 48 hrs by Annexin V-FITC/PI staining based flow cytometry
MCF7 [26] = assay: Induction of cell cycle arrest in human MCF7 cells assessed as accumulation of cells at G0/G1 phase incubated for 48 hrs by flow cytometry
LoVo [27] = assay: Induction of cell cycle arrest in human LoVo cells assessed as accumulation of cells at G0/G1 phase incubated for 48 hrs by flow cytometry
HepG2 [28] = assay: Induction of cell cycle arrest in human HepG2 cells assessed as decrease in accumulation of cells at S phase incubated for 48 hrs by flow cytometry
HCT-116 [29] = assay: Induction of cell cycle arrest in human HCT-116 cells assessed as accumulation of cells at G0/G1 phase incubated for 48 hrs by flow cytometry
HCT-116 [30] = assay: Induction of apoptosis in human HCT-116 cells at IC50 concentration incubated for 48 hrs by Annexin V-FITC/PI staining based flow cytometry
MCF7 [31] = assay: Induction of necrosis in human MCF7 cells at IC50 concentration incubated for 48 hrs by Annexin V-FITC/PI staining based flow cytometry

Measured: Activity

COc1cc(O)cc(/C=C/c2ccc(O)cc2)c1
active: MDA-MB-231 [1] | LoVo [2] | LoVo [3] | LoVo [4] | MDA-MB-231 [5] | LoVo [6] | MDA-MB-231 [7] | MDA-MB-231 [8]

COc1cc(/C=C/c2ccc(O)cc2)cc(O)c1C
active: PC-3 [9] | LoVo [3] | DU-145 [10] | LoVo [4] | DU-145 [11] | LoVo [6] | PC-3 [12] | DU-145 [13] | PC-3 [14] | DU-145 [15]

O=C1/C(=C/c2ccc(O)cc2)COc2cc(O)cc(O)c21
active: Hep 3B2 [16] | Hep 3B2 [17] | Hep 3B2 [18] | Hep 3B2 [19] | Hep 3B2 [20]

COc1ccc([C@H]2c3c(/C=C/c4ccc(O)cc4)cc(OC)c(C)c3O[C@@H]3Oc4cc(O)cc(O)c4C(=O)[C@@H]32)cc1
active: MDA-MB-231 [21] | HepG2 [22] | HepG2 [23] | MCF7 [24] | HCT-116 [25] | MCF7 [26] | LoVo [27] | HepG2 [28] | HCT-116 [29] | LoVo [3] | LoVo [6] | HCT-116 [30] | MCF7 [31]
